Test results published in ChEMBL document CHEMBL1833830, “1-[2-(2-Benzoyl- and 2-benzylphenoxy)ethyl]uracils as potent anti-HIV-1 agents” (Bioorg Med Chem, 2011).
Values after ≈ are worked out from the molar mass of the structure shown. Active and inactive are the calls of the source. The rule behind the calls is not given here.

Legend:
Punta Toro virus = test: Antiviral activity against Punta Toro virus assessed as inhibition of viral replication; type: functional, organism-based
[1] = Inhibition of DNA-dependent DNA polymerase activity of HIV1 reverse transcriptase p66/p66 homodimer using activated DNA and [alpha-32P]dATP after 30 mins by liquid scintillation counting; set-up: species or system Human immunodeficiency virus 1
[2] = test system: Vesicular stomatitis virus; test: Antiviral activity against Vesicular stomatitis virus assessed as inhibition of viral replication; type: functional, organism-based
[3] = test system: Human immunodeficiency virus 1; test: Antiviral activity against HIV1 3B infected in human CEM cells assessed as inhibition of virus-induced giant cell formation after 4 days by microscopic analysis; type: functional, organism-based; conditions: Human immunodeficiency virus 1, 3B, CCRF-CEM, 96 h
West Nile virus = test: Antiviral activity against West Nile virus assessed as inhibition of viral replication; type: functional, organism-based
Feline coronavirus = test: Antiviral activity against Feline coronavirus assessed as inhibition of viral replication; type: functional, organism-based
[4] = Selectivity index, ratio of CC50 for human CEM cells to EC50 for HIV1 3B; type: toxicity, cell-based, CCRF-CEM; conditions: read-out: Ratio CC50/EC50
Vaccinia virus = test: Antiviral activity against Vaccinia virus assessed as inhibition of viral replication; type: functional, organism-based; conditions: Orthopoxvirus vaccinia
Sindbis virus = test: Antiviral activity against Sindbis virus assessed as inhibition of viral replication; type: functional, organism-based
Rift Valley fever virus = test: Antiviral activity against Rift Valley fever virus assessed as inhibition of viral replication; type: functional, organism-based
[5] = Solubility of the compound in 0.1% DMSO after overnight incubation by UV spectrometric analysis; type: physicochemical
Human alphaherpesvirus 2 = test: Antiviral activity against HSV-2 assessed as inhibition of viral replication; type: functional, organism-based
[6] = test system: Mammalian orthoreovirus 1; test: Antiviral activity against Reovirus 1 assessed as inhibition of viral replication; type: functional, organism-based
Yellow fever virus = test: Antiviral activity against Yellow fever virus assessed as inhibition of viral replication; type: functional, organism-based
[7] = test system: Human immunodeficiency virus 2; test: Antiviral activity against Human immunodeficiency virus type 2 ROD infected in human CEM cells assessed as inhibition of virus-induced giant cell formation after 4 days by microscopic analysis; type: functional, organism-based; conditions: ISOLATE ROD, CCRF-CEM
Dengue virus = test: Antiviral activity against Dengue virus assessed as inhibition of viral replication; type: functional, organism-based
Coxsackievirus B4 = test: Antiviral activity against Coxsackievirus B4 assessed as inhibition of viral replication; type: functional, organism-based
[8] = test system: Respiratory syncytial virus; test: Antiviral activity against Respiratory syncytial virus assessed as inhibition of viral replication; type: functional, organism-based
Human respirovirus 3 = test: Antiviral activity against Parainfluenza 3 virus assessed as inhibition of viral replication; type: functional, organism-based
[9] = Cytotoxicity against human CEM cells after 4 days by MTT assay; type: cell-based; conditions: CEM cells (CCRF-CEM)
[10] = Solubility of the compound in 10% DMSO after overnight incubation by UV spectrometric analysis; type: physicochemical
[11] = target: Human immunodeficiency virus type 1 reverse transcriptase (Human immunodeficiency virus 1, UniProt Q72547); test: Inhibition of RNA-dependent DNA polymerase activity of HIV1 reverse transcriptase p66/p51 heterodimer using [8-3H]dGTP as substrate after 30 mins by liquid scintillation counting
[12] = test system: Human immunodeficiency virus 1; type: functional, organism-based; conditions: Human immunodeficiency virus 1, 3B, CCRF-CEM, 96 h
Human alphaherpesvirus 1 = test: Antiviral activity against HSV1 assessed as inhibition of viral replication; type: functional, organism-based
[13] = test system: Human immunodeficiency virus 2; test: Antiviral activity against Human immunodeficiency virus type 2 ROD infected in human MT4 cells assessed as inhibition of virus-induced cytopathic effect after 4 days by MTT assay; type: functional, organism-based; conditions: ISOLATE ROD
[14] = test system: Human immunodeficiency virus 1; test: Inhibition of DNA-dependent DNA polymerase activity of HIV1 reverse transcriptase p66/p66 homodimer using activated DNA and [alpha-32P]dATP after 30 mins by liquid scintillation counting in presence of heparin
[15] = Inhibition of DNA-dependent DNA polymerase activity of HIV1 reverse transcriptase p66/p66 homodimer Y188L mutant using activated DNA and [alpha-32P]dATP after 30 mins by liquid scintillation counting; set-up: species or system Human immunodeficiency virus 1
[16] = Inhibition of DNA-dependent DNA polymerase activity of HIV1 reverse transcriptase p66/p66 homodimer V106A mutant using activated DNA and [alpha-32P]dATP after 30 mins by liquid scintillation counting; set-up: species or system Human immunodeficiency virus 1
[17] = test system: Human immunodeficiency virus 1; test: Ratio of Ki for HIV1 RT p66/p66 homodimer G190A mutant to Ki for wild-type HIV1 RT p66/p66 homodimer
[18] = test system: Human immunodeficiency virus 1; type: functional, organism-based; conditions: Human immunodeficiency virus 1, 3B, MT4, 96 h
[19] = test system: Human immunodeficiency virus 1; test: Ratio of Ki for HIV1 RT p66/p66 homodimer Y188L mutant to Ki for wild-type HIV1 RT p66/p66 homodimer
[20] = test system: Human immunodeficiency virus 1
[21] = target: Human immunodeficiency virus type 1 reverse transcriptase (Human immunodeficiency virus 1, UniProt Q72547, K103N)
in vitro [22] = conditions: human, MT4 cells
[23] = test system: Human immunodeficiency virus 1; remark: listed apart in the source
[24] = Inhibition of DNA-dependent DNA polymerase activity of HIV1 reverse transcriptase p66/p66 homodimer G190A mutant using activated DNA and [alpha-32P]dATP after 30 mins by liquid scintillation counting; set-up: species or system Human immunodeficiency virus 1
[25] = test system: Human immunodeficiency virus 1; test: Ratio of Ki for HIV1 RT p66/p66 homodimer K103N mutant to Ki for wild-type HIV1 RT p66/p66 homodimer
[26] = test system: Human immunodeficiency virus 1; test: Ratio of Ki for HIV1 RT p66/p66 homodimer L100I mutant to Ki for wild-type HIV1 RT p66/p66 homodimer
[27] = Cytotoxicity against human MT4 cells after 4 days by MTT assay; type: cell-based
[28] = Inhibition of DNA-dependent DNA polymerase activity of HIV1 reverse transcriptase p66/p66 homodimer L100I mutant using activated DNA and [alpha-32P]dATP after 30 mins by liquid scintillation counting; set-up: species or system Human immunodeficiency virus 1
[29] = test system: Human immunodeficiency virus 1; test: microbe, parasite or virus in culture; conditions: Human immunodeficiency virus 1, 3B, MT4, 96 h
in vitro [30] = conditions: human, MT4 cells; remark: listed apart in the source

Row | Compound | Activity (Punta Toro virus) | Ki [1] [µM] | Activity [2] | Activity (West Nile virus) | Activity (Feline coronavirus) | Activity (Vaccinia virus) | Activity (Sindbis virus) | Activity (Rift Valley fever virus) | solubility [5] [µM] | Activity (Human alphaherpesvirus 2) | Activity [6] | Activity (Yellow fever virus) | Activity [7] | Activity (Dengue virus) | Activity (Coxsackievirus B4) | Activity [8] | Activity (Human respirovirus 3) | solubility [10] [µM] | Ki [11] [µM] | Activity (Human alphaherpesvirus 1) | further results
1 | Cc1cc(C)cc(Cc2cc(Cl)ccc2OCCn2ccc(=O)[nH]c2=O)c1 | inactive | 5 | inactive | inactive | inactive | inactive | inactive | inactive | 0.9 (≈ 0.346 µg/mL) | inactive | inactive | inactive | inactive | inactive | inactive | inactive | inactive | 1.7 (≈ 0.654 µg/mL) | 2.1 | inactive | EC50 [3]: 0.22 µM; selectivity ratio [4]: > 909; CC50 at 96 h [9]: > 200 µM; EC50 [12]: > 200 µM; Activity [13]: inactive
2 | Cc1cc(C)cc(Cc2cc(C)ccc2OCCn2ccc(=O)[nH]c2=O)c1 | inactive | 5.9 | inactive | inactive | inactive | inactive | inactive | inactive | 44.4 (≈ 16.2 µg/mL) | inactive | inactive | inactive | inactive | inactive | inactive | inactive | inactive | 184 (≈ 67.2 µg/mL) | 2.7 | inactive | EC50 [3]: 0.13 µM; inhibition [14]: Active; selectivity ratio [4]: 507; CC50 at 96 h [9]: 66 µM; Activity [13]: inactive
3 | O=C(c1cc(Cl)cc(Cl)c1)c1cc(Cl)ccc1OCCn1ccc(=O)[nH]c1=O | inactive | 0.68 | inactive | inactive | inactive | inactive | inactive | inactive | 1.9 (≈ 0.835 µg/mL) | inactive | inactive | inactive | inactive | inactive | inactive | inactive | inactive | 9.4 (≈ 4.13 µg/mL) | 0.82 | inactive | Ki [15]: 8.4 µM; Ki [16]: > 1200 µM; Ratio Ki [17]: 2.3; EC50 [18]: 1.13 µM; Ratio Ki [19]: 12; Ratio Ki [20]: 2; Ki [21]: 5.6 µM; selectivity ratio (in vitro [22]): > 15800; Ratio Ki [23]: 14.9; Ki [24]: 1.6 µM; Ratio Ki [25]: 8; Ratio Ki [26]: 2.5; Activity [13]: inactive; CC50 at 96 h [27]: > 284 µM; Ki [28]: 1.8 µM; EC50 [29]: 0.018 µM; selectivity ratio (in vitro [30]): > 251
4 | Cc1cc(C)cc(C(=O)c2cc(Cl)ccc2OCCn2ccc(=O)[nH]c2=O)c1 | inactive | 2.4 | inactive | inactive | inactive | inactive | inactive | inactive | 3.7 (≈ 1.48 µg/mL) | inactive | inactive | inactive | inactive | inactive | inactive | inactive | inactive | 16.6 (≈ 6.62 µg/mL) | 0.52 | inactive | Ki [15]: 10 µM; Ki [16]: > 1000 µM; EC50 [18]: > 313 µM; Ratio Ki [19]: 4.3; Ratio Ki [20]: 3.3; Ki [21]: 33 µM; selectivity ratio (in vitro [22]): > 19600; Ratio Ki [23]: 23.8; Ki [24]: 1 µM; Ratio Ki [25]: 13.8; Ratio Ki [26]: 1.4; Activity [13]: inactive; CC50 at 96 h [27]: > 313 µM; Ki [28]: 3.3 µM; EC50 [29]: 0.016 µM; selectivity ratio (in vitro [30]): 1
